Reference: patent publication US20240415914A1, “Water Dispersible Cannabinoid Compositions” (priority 2021, published 2024)

Assay: Stability of cannabinoid and Vitamin E components of Beverage 1 (AB White) stored at 8° C. and 21-25° C., LCMSMS over 570 days
Format: physicochemical
Conditions: for Stability in AB White, 8° C. (content by LCMSMS): beverage stored at 8° C.; for Stability in AB White, 21-25° C. (content by LCMSMS): beverage stored at 21-25° C.
Method: The LCMSMS was calibrated for 0-1000 ng/ml cannabinoids with the same resin material used in the preparation of the concentrates. At each time period, 100 ml of beverage was diluted with 10 ml of methanol and injected into the LCMSMS for analysis.

## C=C(C)[C@@H]1CCC(C)=C[C@H]1c1c(O)cc(CCC)cc1O [CBDV, cannabidivarin]
Day 0
  Stability in AB White, 8° C. (content by LCMSMS): 0.150 µg/mL
  Stability in AB White, 21-25° C. (content by LCMSMS): 0.150 µg/mL
Day 1
  Stability in AB White, 8° C. (content by LCMSMS): 0.146 µg/mL
  Stability in AB White, 21-25° C. (content by LCMSMS): 0.149 µg/mL
Day 2
  Stability in AB White, 8° C. (content by LCMSMS): 0.147 µg/mL
  Stability in AB White, 21-25° C. (content by LCMSMS): 0.148 µg/mL
Day 3
  Stability in AB White, 8° C. (content by LCMSMS): 0.146 µg/mL
  Stability in AB White, 21-25° C. (content by LCMSMS): 0.149 µg/mL
Day 5
  Stability in AB White, 8° C. (content by LCMSMS): 0.147 µg/mL
  Stability in AB White, 21-25° C. (content by LCMSMS): 0.144 µg/mL
Day 8
  Stability in AB White, 8° C. (content by LCMSMS): 0.148 µg/mL
  Stability in AB White, 21-25° C. (content by LCMSMS): 0.145 µg/mL
Day 9
  Stability in AB White, 8° C. (content by LCMSMS): 0.146 µg/mL
  Stability in AB White, 21-25° C. (content by LCMSMS): 0.148 µg/mL
Day 10
  Stability in AB White, 8° C. (content by LCMSMS): 0.148 µg/mL
  Stability in AB White, 21-25° C. (content by LCMSMS): 0.147 µg/mL
Day 11
  Stability in AB White, 8° C. (content by LCMSMS): 0.150 µg/mL
  Stability in AB White, 21-25° C. (content by LCMSMS): 0.150 µg/mL
Day 12
  Stability in AB White, 8° C. (content by LCMSMS): 0.150 µg/mL
  Stability in AB White, 21-25° C. (content by LCMSMS): 0.152 µg/mL
Day 15
  Stability in AB White, 8° C. (content by LCMSMS): 0.150 µg/mL
  Stability in AB White, 21-25° C. (content by LCMSMS): 0.151 µg/mL
Day 16
  Stability in AB White, 8° C. (content by LCMSMS): 0.148 µg/mL
  Stability in AB White, 21-25° C. (content by LCMSMS): 0.145 µg/mL
Day 17
  Stability in AB White, 8° C. (content by LCMSMS): 0.146 µg/mL
  Stability in AB White, 21-25° C. (content by LCMSMS): 0.150 µg/mL
Day 18
  Stability in AB White, 8° C. (content by LCMSMS): 0.146 µg/mL
  Stability in AB White, 21-25° C. (content by LCMSMS): 0.151 µg/mL
Day 19
  Stability in AB White, 8° C. (content by LCMSMS): 0.149 µg/mL
  Stability in AB White, 21-25° C. (content by LCMSMS): 0.148 µg/mL
Day 22
  Stability in AB White, 8° C. (content by LCMSMS): 0.149 µg/mL
  Stability in AB White, 21-25° C. (content by LCMSMS): 0.148 µg/mL
Day 23
  Stability in AB White, 8° C. (content by LCMSMS): 0.149 µg/mL
  Stability in AB White, 21-25° C. (content by LCMSMS): 0.148 µg/mL
Day 24
  Stability in AB White, 8° C. (content by LCMSMS): 0.147 µg/mL
  Stability in AB White, 21-25° C. (content by LCMSMS): 0.145 µg/mL
Day 25
  Stability in AB White, 8° C. (content by LCMSMS): 0.149 µg/mL
  Stability in AB White, 21-25° C. (content by LCMSMS): 0.145 µg/mL
Day 26
  Stability in AB White, 8° C. (content by LCMSMS): 0.152 µg/mL
  Stability in AB White, 21-25° C. (content by LCMSMS): 0.149 µg/mL
Day 29
  Stability in AB White, 8° C. (content by LCMSMS): 0.151 µg/mL
  Stability in AB White, 21-25° C. (content by LCMSMS): 0.147 µg/mL
Day 30
  Stability in AB White, 8° C. (content by LCMSMS): 0.148 µg/mL
  Stability in AB White, 21-25° C. (content by LCMSMS): 0.151 µg/mL
Day 60
  Stability in AB White, 8° C. (content by LCMSMS): 0.143 µg/mL
  Stability in AB White, 21-25° C. (content by LCMSMS): 0.149 µg/mL
Day 90
  Stability in AB White, 8° C. (content by LCMSMS): 0.146 µg/mL
  Stability in AB White, 21-25° C. (content by LCMSMS): 0.143 µg/mL
Day 120
  Stability in AB White, 8° C. (content by LCMSMS): 0.144 µg/mL
  Stability in AB White, 21-25° C. (content by LCMSMS): 0.141 µg/mL
Day 150
  Stability in AB White, 8° C. (content by LCMSMS): 0.150 µg/mL
  Stability in AB White, 21-25° C. (content by LCMSMS): 0.146 µg/mL
Day 180
  Stability in AB White, 8° C. (content by LCMSMS): 0.150 µg/mL
  Stability in AB White, 21-25° C. (content by LCMSMS): 0.141 µg/mL
Day 210
  Stability in AB White, 8° C. (content by LCMSMS): 0.147 µg/mL
  Stability in AB White, 21-25° C. (content by LCMSMS): 0.142 µg/mL
Day 240
  Stability in AB White, 8° C. (content by LCMSMS): 0.145 µg/mL
  Stability in AB White, 21-25° C. (content by LCMSMS): 0.145 µg/mL
Day 270
  Stability in AB White, 8° C. (content by LCMSMS): 0.143 µg/mL
  Stability in AB White, 21-25° C. (content by LCMSMS): 0.148 µg/mL
Day 300
  Stability in AB White, 8° C. (content by LCMSMS): 0.143 µg/mL
  Stability in AB White, 21-25° C. (content by LCMSMS): 0.142 µg/mL
Day 330
  Stability in AB White, 8° C. (content by LCMSMS): 0.146 µg/mL
  Stability in AB White, 21-25° C. (content by LCMSMS): 0.144 µg/mL
Day 360
  Stability in AB White, 8° C. (content by LCMSMS): 0.145 µg/mL
  Stability in AB White, 21-25° C. (content by LCMSMS): 0.146 µg/mL
Day 390
  Stability in AB White, 8° C. (content by LCMSMS): 0.143 µg/mL
  Stability in AB White, 21-25° C. (content by LCMSMS): 0.146 µg/mL
Day 420
  Stability in AB White, 8° C. (content by LCMSMS): 0.144 µg/mL
  Stability in AB White, 21-25° C. (content by LCMSMS): 0.143 µg/mL
Day 450
  Stability in AB White, 8° C. (content by LCMSMS): 0.145 µg/mL
  Stability in AB White, 21-25° C. (content by LCMSMS): 0.144 µg/mL
Day 480
  Stability in AB White, 8° C. (content by LCMSMS): 0.143 µg/mL
  Stability in AB White, 21-25° C. (content by LCMSMS): 0.143 µg/mL
Day 510
  Stability in AB White, 8° C. (content by LCMSMS): 0.138 µg/mL
  Stability in AB White, 21-25° C. (content by LCMSMS): 0.139 µg/mL
Day 540
  Stability in AB White, 8° C. (content by LCMSMS): 0.139 µg/mL
  Stability in AB White, 21-25° C. (content by LCMSMS): 0.140 µg/mL
Day 570
  Stability in AB White, 8° C. (content by LCMSMS): 0.138 µg/mL
  Stability in AB White, 21-25° C. (content by LCMSMS): 0.138 µg/mL
